Measurements from patent publication US6660772B2, “Use of 2-amino-1-(4-hydroxy-2-methanesulfonamidophenyl)ethanol for treating urinary incontinence” (Boehringer Ingelheim Pharma KG, priority 2001, dated 2003).

System: dog
Test: Activity (maximum contraction) in the dog compared with noradrenaline
Details: percentage of contraction compared with noradrenaline
Description: The efficacy and selectivity of the compound according to the invention is determined as follows, using the same findings as described in 1:
Maximum contraction in the dog and activity on human urethra are percentages of contraction compared with noradrenaline. Selectivity in the dog is the difference obtained from the percentage contraction of the dog's femoral artery at 10^−5 M and percentage contraction of the carotid artery in the dog at 10^−5 M.

| Compound | Activity in the Dog (maximum contraction) [%] |
| --- | --- |
| CS(=O)(=O)Nc1cc(C(O)CN)ccc1O (centres unmarked) [Compound 1, 2-amino-1-(4-hydroxy-3-methanesulfonamidophenyl)ethanol] | 103 |
| CS(=O)(=O)Nc1ccc(F)c([C@@H](O)CN)c1 [Compound 2, (−)-R-2-Amino-1-(2-fluoro-5-methanesulfonamidophenyl)ethanol] | 79 |
